Source: patent EP3325480B1, “5-SUBSTITUTED-7-[4-(SUBSTITUTED) BENZYL]AMINO-3-ISOPROPYLPYRAZOLO (4,3-D) PYRIMIDINES AS MEDICAMENTS” (Ustav experimentalni botaniky AV CR, v.v.i., priority 2015, dated 2017)

Columns and labels:
neutrophils [1] = test: Measurement of neutrophil apoptosis (Annexin V FITC / propidium iodide, flow cytometry); format: cell-based; settings: 10 nM, 8 h, isolated human neutrophils, Annexin V positive / PI negative cells taken as apoptotic
Source text: The neutrophils were isolated from the peripheral blood of healthy human donors as described previously (Afford et al 1992). Briefly, blood was collected into tubes containing EDTA followed by usage of 2% dextran solution for sedimentation of erythrocytes. The neutrophils were then isolated from leukocyte layer using a discontinuous Percoll density gradient centrifugation (Sigma- Aldrich, Poole, UK) and resuspended in RPMI 1640 medium (Sigma- Aldrich) supplemented with 10% heat-inactivated fetal bovine serum (Sera Laboratories International, Bolney, UK), 2 mM glutamine, 100 U/ml penicillin and 100 µg/ml streptomycin (Sigma-Aldrich). The purity of isolated neutrophils was assessed by Giemsa staining (Diff-Quick, Baxter Healthcare, UK) and light microscopy and was routinely greater than 97%. The neutrophils were then cultured in the presence of novel compounds (single concentration of 10 nM, or several increasing concentrations ranging from 10 nM to 1 µM) and other stimulating factors for 8 h.
For evaluation of early apoptosis, neutrophils were double stained with anti-Annexin V FITC-conjugated antibody (BD Pharmingen) binding extracellular phosphatidylserine and propidium iodide detecting late apoptotic and necrotic cells. After appropriate treatment, cells were washed with PBS and then resuspended in 100 µl of Annexin V buffer (10 mM HEPES, pH 7.4; 140 mM NaCl; 2.5 mM CaCl2). 1 µl of anti-Annexin V FITC-conjugated antibody was added and cells were then incubated at room temperature for 10 minutes followed by addition of propidium iodide at final concentration of 5 µg/ml. Fluorescence was analyzed by flow cytometry (BD Accuri C6 Flow Cytometer, Accuri Cytometers Inc.) with Annexin V positive / PI negative cells taken as apoptotic.

neutrophils [2] = test: Superoxide generation assay (luminol-based chemiluminescent assay, fMLP stimulus); format: cell-based; settings: isolated human neutrophils, GM-CSF present, compound 1 h, fMLP 2.5 µM, luminol 100 µM (Figure 2)
Method: Isolated human neutrophils were incubated in the presence of prosurvival factor GM-CSF with or without the compound at indicated concentrations for 1 h.
Levels of reactive oxygen species (ROS) generated by neutrophils were measured using a luminol-based chemiluminescent assay (Gyllenhammar 1987). After treatment, neutrophils were resuspended in Hank's Balanced Salt Solution (HBSS) containing calcium and magnesium (Gibco) and transferred to opaque 96 well plates (Greiner Bio-One GmbH). Luminol was then added to each well at final concentration of 100 µM followed by a measuring of chemiluminescence in response to the stimulus fMLP (2.5 µM) at 1 min intervals for 30 min by means of a luminometer (Centro LB 960, Berthold Technologies, Bad Wildbad, Germany).

| Structure (SMILES) | % of apoptotic cells (neutrophils [1]) [%] | neutrophil oxygen radical production induced by fMLP (neutrophils [2]) |
| --- | --- | --- |
| CC(CCO)Nc1nc(NCc2ccc(-c3cccs3)cc2)c2[nH]nc(C(C)C)c2n1 (racemic) [compound 44] | 38 |  |
| CC(C)c1n[nH]c2c(Cl)nc(S(C)(=O)=O)nc12 [compound 1, 7-Chloro-3-isopropyl-5-methylsulfonyl-1H-pyrazolo[4,3-d]pyrimidine] | 32 |  |
| CC(C)c1n[nH]c2c(NCc3ccc(-c4ccco4)cc3)nc(S(C)(=O)=O)nc12 [compound 2, 3-Isopropyl-5-methylsulfonyl-7-[4-(furan-2-yl)benzyl]amino-1H-pyrazolo[4,3-d]pyrimidine] | 41 |  |
| CC(C)c1n[nH]c2c(NCc3ccc(-c4cccs4)cc3)nc(S(C)(=O)=O)nc12 [compound 3, 3-Isopropyl-5-methylsulfonyl-7-[4-(thiophen-2-yl)benzyl]amino-1H-pyrazolo[4,3-d]pyrimidine] | 58 |  |
| CC(C)c1n[nH]c2c(NCc3ccc(-n4cccn4)cc3)nc(S(C)(=O)=O)nc12 [compound 6, 3-Isopropyl-5-methylsulfonyl-7-[4-(1H-pyrazol-1-yl)benzyl]amino-1H-pyrazolo[4,3-d]pyrimidine] | 36 |  |
| CC(C)c1n[nH]c2c(NCc3ccc(-c4ccco4)cc3)nc(NCCO)nc12 [compound 7] | 47 |  |
| CC(C)c1n[nH]c2c(NCc3ccc(-c4ccco4)cc3)nc(NCC(O)CN)nc12 (stereo not shown) [compound 15, 3-Isopropyl-5-(3-amino-2-hydroxypropyl)amino-7-[4-(furan-2-yl)benzyl]amino-1H-pyrazolo[4,3-d]pyrimidine] | 52 | inhibits |
| CC(C)c1n[nH]c2c(NCc3ccc(-c4ccco4)cc3)nc(NCCCCCCN)nc12 [compound 30] | 39 |  |
| CC(C)c1n[nH]c2c(NCc3ccc(-c4ccco4)cc3)nc(NCC(C)(C)O)nc12 [compound 31, 3-Isopropyl-5-(2-hydroxy-2-methylpropyl)amino-7-[4-(furan-2-yl)benzyl]amino-1H-pyrazolo[4,3-d]pyrimidine] | 50 |  |
| CC(C)c1n[nH]c2c(NCc3ccc(-c4cccs4)cc3)nc(NCC(C)(C)O)nc12 [compound 32, 3-Isopropyl-5-(2-hydroxy-2-methylpropyl)amino-7-[4-(thiophen-2-yl)benzyl]amino-1H-pyrazolo[4,3-d]pyrimidine] | 48 |  |
| CC(C)c1n[nH]c2c(NCc3ccc(-c4cccs4)cc3)nc(NCCC(C)(C)O)nc12 [compound 33] | 36 |  |
| CC(C)c1n[nH]c2c(NCc3ccc(-c4cccs4)cc3)nc(NCC(O)CO)nc12 (stereo not shown) [compound 34] | 52 |  |
| CC(C)c1n[nH]c2c(NCc3ccc(-c4cccs4)cc3)nc(NC[C@H](C)O)nc12 [compound 42] | 57 |  |
| CC(C)c1n[nH]c2c(NCc3ccc(-c4cccs4)cc3)nc(N[C@H](C)CCO)nc12 [compound 45] | 33 |  |
| CC(C)c1n[nH]c2c(NCc3ccc(-n4cccn4)cc3)nc(NCCCCN)nc12 [compound 58] | 44 |  |
| CC(C)c1n[nH]c2c(NCc3ccc(-n4cccn4)cc3)nc(NCCCCCN)nc12 [compound 59] | 49 |  |
| CC(C)c1n[nH]c2c(NCc3ccc(-n4cccn4)cc3)nc(NCCCCCCN)nc12 [compound 60] | 60 |  |
| CC(C)c1n[nH]c2c(NCc3ccc(-n4cccn4)cc3)nc(NCC(O)CN)nc12 (stereo not shown) [compound 61, 3-Isopropyl-5-(3-amino-2-hydroxypropyl)amino-7-[4-(1H-pyrazol-1-yl)benzyl]amino-1H-pyrazolo[4,3-d]pyrimidine] | 40 |  |
| CCN(CC)CCNc1nc(NCc2ccc(N3CCCC3)cc2)c2[nH]nc(C(C)C)c2n1 [compound 63] | 39 |  |
| CCN(CC)C(C)CCNc1nc(NCc2ccc(N3CCCC3)cc2)c2[nH]nc(C(C)C)c2n1 (stereo not shown) [compound 65] | 56 |  |
| CC(C)c1n[nH]c2c(NCc3ccc(N4CCCC4)cc3)nc(NCC(C)(C)O)nc12 [compound 66] | 34 |  |
